pIC50: −log10 of the molar value.
How the values were obtained:
[1] = molecular target: EED (1-441)-His protein (Homo sapiens (Human), UniProt O75530); assay: EED-H3K27Me3 peptide competition binding assay by AlphaScreen; settings: read-out: (a) IC50 EED Alphascreen binding Qualified
Text: EED-H3K27Me3 peptide competition binding assay by AlphaScreen (α-screen)

[2] = molecular target: wild type PRC2 (wtPRC2) complex (Homo sapiens (Human), UniProt O75530); assay: EED LC-MS assay; format: biochemical; settings: read-out: (b) IC50 EED LC-MS Qualified
Method: A 6 μL solution of 3 μM of the peptide substrate H3K27Me0 (histone H3[21-44]-biotin) in reaction buffer was added to initiate each reaction. […] ELISA (H3K27 Methylation) Assay

Chain of EED (1-441)-His protein (O75530 whole entry): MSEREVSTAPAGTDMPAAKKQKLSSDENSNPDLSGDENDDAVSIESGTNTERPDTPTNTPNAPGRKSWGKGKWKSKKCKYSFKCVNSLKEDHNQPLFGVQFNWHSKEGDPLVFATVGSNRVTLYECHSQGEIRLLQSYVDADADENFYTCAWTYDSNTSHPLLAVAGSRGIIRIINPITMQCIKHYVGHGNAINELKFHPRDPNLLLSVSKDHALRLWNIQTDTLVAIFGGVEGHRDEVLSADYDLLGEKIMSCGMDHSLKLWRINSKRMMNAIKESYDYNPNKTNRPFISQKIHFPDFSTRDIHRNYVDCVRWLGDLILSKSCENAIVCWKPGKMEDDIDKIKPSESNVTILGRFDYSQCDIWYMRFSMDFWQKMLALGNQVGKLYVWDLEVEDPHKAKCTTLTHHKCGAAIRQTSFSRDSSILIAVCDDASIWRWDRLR
Chain of wild type PRC2 (wtPRC2) complex (O75530 whole entry): as above
Chain of wild type PRC2 (wtPRC2) complex (Q15910 whole entry partner): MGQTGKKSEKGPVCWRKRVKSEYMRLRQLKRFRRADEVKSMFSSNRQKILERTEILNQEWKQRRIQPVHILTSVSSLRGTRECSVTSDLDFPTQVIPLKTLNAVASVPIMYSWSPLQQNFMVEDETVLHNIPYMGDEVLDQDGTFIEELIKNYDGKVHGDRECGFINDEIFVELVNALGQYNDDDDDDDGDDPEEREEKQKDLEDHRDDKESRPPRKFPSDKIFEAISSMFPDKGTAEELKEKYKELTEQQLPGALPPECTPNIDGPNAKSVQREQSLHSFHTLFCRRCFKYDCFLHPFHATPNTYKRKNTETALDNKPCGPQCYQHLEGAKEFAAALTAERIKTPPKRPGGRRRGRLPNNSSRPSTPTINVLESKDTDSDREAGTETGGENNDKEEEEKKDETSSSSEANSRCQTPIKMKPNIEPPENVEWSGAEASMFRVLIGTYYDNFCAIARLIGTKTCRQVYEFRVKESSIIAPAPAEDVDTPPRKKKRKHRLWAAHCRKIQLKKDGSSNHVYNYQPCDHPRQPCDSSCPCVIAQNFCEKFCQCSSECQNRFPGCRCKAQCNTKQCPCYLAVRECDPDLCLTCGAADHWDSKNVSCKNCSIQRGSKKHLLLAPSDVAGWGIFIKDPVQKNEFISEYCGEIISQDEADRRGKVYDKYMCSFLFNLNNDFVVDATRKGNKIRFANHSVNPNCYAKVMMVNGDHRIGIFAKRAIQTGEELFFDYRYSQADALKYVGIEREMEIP
Chain of wild type PRC2 (wtPRC2) complex (Q15022 whole entry partner): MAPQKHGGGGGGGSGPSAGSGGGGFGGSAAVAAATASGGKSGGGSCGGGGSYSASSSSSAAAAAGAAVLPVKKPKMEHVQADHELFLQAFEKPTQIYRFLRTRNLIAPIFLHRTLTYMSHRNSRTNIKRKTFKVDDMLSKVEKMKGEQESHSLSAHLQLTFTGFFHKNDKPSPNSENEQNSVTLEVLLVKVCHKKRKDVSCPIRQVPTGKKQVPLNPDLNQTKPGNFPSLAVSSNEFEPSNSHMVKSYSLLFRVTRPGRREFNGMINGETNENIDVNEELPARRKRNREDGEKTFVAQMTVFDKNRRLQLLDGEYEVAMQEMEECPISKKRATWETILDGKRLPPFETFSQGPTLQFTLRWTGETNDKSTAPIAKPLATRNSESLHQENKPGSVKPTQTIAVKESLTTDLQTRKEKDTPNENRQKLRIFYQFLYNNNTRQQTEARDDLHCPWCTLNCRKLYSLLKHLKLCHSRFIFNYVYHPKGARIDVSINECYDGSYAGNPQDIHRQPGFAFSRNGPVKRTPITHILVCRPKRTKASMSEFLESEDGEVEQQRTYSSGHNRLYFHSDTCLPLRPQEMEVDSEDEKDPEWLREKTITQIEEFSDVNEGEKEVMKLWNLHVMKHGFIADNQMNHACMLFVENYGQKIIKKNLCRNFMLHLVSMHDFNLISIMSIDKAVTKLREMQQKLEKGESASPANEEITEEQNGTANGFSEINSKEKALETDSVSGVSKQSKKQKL

| SMILES | pIC50 [1] | pIC50 [2] |
| --- | --- | --- |
| c1cncc(-c2cnc(NCc3cccc4occc34)n3cnnc23)c1 [Example 213, N-(benzofuran-4-ylmethyl)-8-(pyridin-3-yl)-[1,2,4]triazolo[4,3-c]pyrimidin-5-amine] | 7.44 | 7.59 |
| N#Cc1ccc(-c2cnc(NCc3cccc4c3CCO4)n3cnnc23)cn1 [Example 62, 5-(5-(((2,3-dihydrobenzofuran-4-yl)methyl)amino)-[1,2,4]triazolo[4,3-c]pyrimidin-8-yl)picolinonitrile] | 7.80 | 7.53 |
| Fc1ccccc1-c1cnc(NCc2cccc3c2CCO3)n2cnnc12 [Example 31, N-((2,3-dihydrobenzofuran-4-yl)methyl)-8-(2-fluorophenyl)-[1,2,4]triazolo[4,3-c]pyrimidin-5-amine] | 7.52 | 7.67 |
| Fc1ccc2c(c1CNc1ncc(-c3ccnnc3)c3nncn13)CCO2 [Example 202, N-((5-fluoro-2,3-dihydrobenzofuran-4-yl)methyl)-8-(pyridazin-4-yl)-[1,2,4]triazolo[4,3-c]pyrimidin-5-amine] | 8.02 | 7.73 |
| Fc1ccc2c(c1CNc1ncc(-c3ccncc3)c3nncn13)CCO2 [Example 45, N-((5-fluoro-2,3-dihydrobenzofuran-4-yl)methyl)-8-(pyridin-4-yl)-[1,2,4]triazolo[4,3-c]pyrimidin-5-amine] | 7.70 | 7.48 |
| N#Cc1ccccc1-c1cnc(NCc2c(F)ccc3c2CCO3)n2cnnc12 [Example 121, 2-(5-(((5-fluoro-2,3-dihydrobenzofuran-4-yl)methyl)amino)-[1,2,4]triazolo[4,3-c]pyrimidin-8-yl)benzonitrile] | 7.87 | 7.66 |
| Fc1ccc2c(c1CNc1ncc(-c3ccc(N4CCOCC4)nc3)c3nncn13)CCO2 [Example 92, N-((5-fluoro-2,3-dihydrobenzofuran-4-yl)methyl)-8-(6-morpholinopyridin-3-yl)-[1,2,4]triazolo[4,3-c]pyrimidin-5-amine] | 7.72 | 7.29 |
| CC(C)S(=O)(=O)c1ccc(-c2cnc(NCc3cccc4occc34)n3cnnc23)cc1 [Example 215, N-(benzofuran-4-ylmethyl)-8-(4-(isopropylsulfonyl)phenyl)-[1,2,4]triazolo[4,3-c]pyrimidin-5-amine] | 7.69 | 7.67 |
| Cc1ncccc1-c1c(C)nc(NCc2c(F)ccc3c2CCO3)n2cnnc12 [Example 203, N-((5-fluoro-2,3-dihydrobenzofuran-4-yl)methyl)-7-methyl-8-(2-methylpyridin-3-yl)-[1,2,4]triazolo[4,3-c]pyrimidin-5-amine] | 7.37 | 6.47 |
| CC(C)n1cc(-c2cnc(NCc3c(F)ccc4c3CCO4)n3cnnc23)c(C(F)(F)F)n1 [Example 148, N-((5-fluoro-2,3-dihydrobenzofuran-4-yl)methyl)-8-(1-isopropyl-3-(trifluoromethyl)-1H-pyrazol-4-yl)-[1,2,4]triazolo[4,3-c]pyrimidin-5-amine] | 8.28 | 7.74 |
| Cc1ccc(-c2cnc(NCc3cccc4c3CCO4)n3cnnc23)cn1 [Example 52, N-((2,3-dihydrobenzofuran-4-yl)methyl)-8-(6-methylpyridin-3-yl)-[1,2,4]triazolo[4,3-c]pyrimidin-5-amine] | 7.15 | 7.33 |
| Fc1ccc2c(c1CNc1ncc(-c3cnn(C4CC4)c3)c3nncn13)CCO2 [Example 150, 8-(1-cyclopropyl-1H-pyrazol-4-yl)-N-((5-fluoro-2,3-dihydrobenzofuran-4-yl)methyl)-[1,2,4]triazolo[4,3-c]pyrimidin-5-amine] | 8.35 | 8.15 |
| CN1CCN(c2ccc(-c3cnc(NCc4cccc5c4CCO5)n4cnnc34)cn2)CC1 [Example 20, N-((2,3-dihydrobenzofuran-4-yl)methyl)-8-(6-(4-methylpiperazin-1-yl)pyridin-3-yl)-[1,2,4]triazolo[4,3-c]pyrimidin-5-amine] | 7.84 | 7.77 |
| Cc1ncccc1-c1cnc(NCc2c(F)ccc3c2C(O)CO3)n2cnnc12 (centres unmarked) [Example 242, 5-fluoro-4-(((8-(2-methylpyridin-3-yl)-[1,2,4]triazolo[4,3-c]pyrimidin-5-yl)amino)methyl)-2,3-dihydrobenzofuran-3-ol] | 7.86 | 7.30 |
| Cn1ncc(-c2cnc(NCc3c(F)ccc4c3CCO4)n3cnnc23)c1CO [Example 227, (4-(5-(((5-fluoro-2,3-dihydrobenzofuran-4-yl)methyl)amino)-[1,2,4]triazolo[4,3-c]pyrimidin-8-yl)-1-methyl-1H-pyrazol-5-yl)methanol] | 8.21 | 8.12 |
| CS(=O)(=O)c1ccc(-c2cnc(NCc3c(F)ccc4c3CCO4)n3cnnc23)cn1 [Example 56, N-((5-fluoro-2,3-dihydrobenzofuran-4-yl)methyl)-8-(6-(methylsulfonyl)pyridin-3-yl)-[1,2,4]triazolo[4,3-c]pyrimidin-5-amine] | 7.71 | 7.51 |

| SMILES | pIC50 [1] | pIC50 [2] |
| --- | --- | --- |
| O=C(c1ccc(-c2cnc(NCc3cccc4c3CCO4)n3cnnc23)cc1)N1CCNCC1 [Example 41, (4-(5-(((2,3-dihydrobenzofuran-4-yl)methyl)amino)-[1,2,4]triazolo[4,3-c]pyrimidin-8-yl)phenyl)(piperazin-1-yl)methanone] | 7.88 | 8.01 |
| Cc1c(-c2cnc(NCc3cccc4c3CCO4)n3cnnc23)cnn1C [Example 64, N-((2,3-dihydrobenzofuran-4-yl)methyl)-8-(1,5-dimethyl-1H-pyrazol-4-yl)-[1,2,4]triazolo[4,3-c]pyrimidin-5-amine] | 7.91 | 7.38 |
| Cc1cc(-c2cnc(NCc3cccc4c3CCO4)n3cnnc23)ccc1C(=O)N(C)C [Example 49, 4-(5-(((2,3-dihydrobenzofuran-4-yl)methyl)amino)-[1,2,4]triazolo[4,3-c]pyrimidin-8-yl)-N,N,2-trimethylbenzamide] | 7.90 | 7.89 |
| Cc1nn(C)c(C)c1-c1cnc(NCc2c(F)ccc3c2CCO3)n2cnnc12 [Example 132, N-((5-fluoro-2,3-dihydrobenzofuran-4-yl)methyl)-8-(1,3,5-trimethyl-1H-pyrazol-4-yl)-[1,2,4]triazolo[4,3-c]pyrimidin-5-amine] | 8.21 | 7.99 |
| O=C1CNCCN1c1ccc(-c2cnc(NCc3cccc4c3CCO4)n3cnnc23)cn1 [Example 125, 1-(5-(5-(((2,3-dihydrobenzofuran-4-yl)methyl)amino)-[1,2,4]triazolo[4,3-c]pyrimidin-8-yl)pyridin-2-yl)piperazin-2-one] | 8.07 | 7.63 |
| Cc1cnccc1-c1cnc(NCc2c(F)ccc3c2CCO3)n2cnnc12 [Example 163, N-((5-fluoro-2,3-dihydrobenzofuran-4-yl)methyl)-8-(3-methylpyridin-4-yl)-[1,2,4]triazolo[4,3-c]pyrimidin-5-amine] | 8.39 | 7.96 |
| Cc1cc(C)c(-c2cnc(NCc3c(F)ccc4c3CCO4)n3cnnc23)cn1 [Example 222, 8-(4,6-dimethylpyridin-3-yl)-N-((5-fluoro-2,3-dihydrobenzofuran-4-yl)methyl)-[1,2,4]triazolo[4,3-c]pyrimidin-5-amine] | 7.93 | 7.85 |
| COCCc1ccc(-c2cnc(NCc3cccc4c3CCO4)n3cnnc23)cn1 [Example 86, N-((2,3-dihydrobenzofuran-4-yl)methyl)-8-(6-(2-methoxyethyl)pyridin-3-yl)-[1,2,4]triazolo[4,3-c]pyrimidin-5-amine] | 7.95 | 7.57 |
| COc1ncc(-c2cnc(NCc3cccc4c3CCO4)n3cnnc23)cn1 [Example 54, N-((2,3-dihydrobenzofuran-4-yl)methyl)-8-(2-methoxypyrimidin-5-yl)-[1,2,4]triazolo[4,3-c]pyrimidin-5-amine] | 7.54 | 7.26 |
| Cc1ncc(-c2cnc(NCc3c(F)ccc4c3CCO4)n3cnnc23)c(C)n1 [Example 3, 8-(2,4-Dimethylpyrimidin-5-yl)-N-((5-fluoro-2,3-dihydrobenzofuran-4-yl)methyl)-[1,2,4]triazolo[4,3-c]pyrimidin-5-amine] | 8.42 | 8.19 |
| OC1CN(c2ccc(-c3cnc(NCc4cccc5c4CCO5)n4cnnc34)cn2)C1 [Example 126, 1-(5-(5-(((2,3-dihydrobenzofuran-4-yl)methyl)amino)-[1,2,4]triazolo[4,3-c]pyrimidin-8-yl)pyridin-2-yl)azetidin-3-ol] | 7.89 | 7.76 |
| CN(C)C(=O)c1ccc(-c2cnc(NCc3cccc4c3CCO4)n3cnnc23)cc1 [Example 42, 4-(5-(((2,3-dihydrobenzofuran-4-yl)methyl)amino)-[1,2,4]triazolo[4,3-c]pyrimidin-8-yl)-N,N-dimethylbenzamide] | 7.28 | 7.06 |
| COc1nccc(-c2cnc(NCc3c(F)ccc4c3CCO4)n3cnnc23)c1C [Example 230, N-((5-fluoro-2,3-dihydrobenzofuran-4-yl)methyl)-8-(2-methoxy-3-methylpyridin-4-yl)-[1,2,4]triazolo[4,3-c]pyrimidin-5-amine] | 7.89 | 7.61 |
| Fc1ccc2c(c1CNc1ncc(-c3ccc(Cl)cc3Cl)c3nncn13)CCO2 [Example 146, 8-(2,4-dichlorophenyl)-N-((5-fluoro-2,3-dihydrobenzofuran-4-yl)methyl)-[1,2,4]triazolo[4,3-c]pyrimidin-5-amine] | 7.64 | 7.42 |
| Cc1cc(C#N)ccc1-c1cnc(NCc2c(F)ccc3c2CCO3)n2cnnc12 [Example 178, 4-(5-(((5-fluoro-2,3-dihydrobenzofuran-4-yl)methyl)amino)-[1,2,4]triazolo[4,3-c]pyrimidin-8-yl)-3-methylbenzonitrile] | 8.27 | 8.15 |
